The values below come from EP0174458A1, “Use of 4H-1,4 benzothiazines in the prophylaxis and therapy of diseases of the breath ways, inflammations, rheumatisms, thromboembolic diseases, ischemia and infarctus, heart rhythm disorders, arteriosclerosis and dermatosis, therapeutic agents for this purpose and reactive compounds which are …” (BAYER AG, priority 1984, dated 1986).

For one assay, the target named is T1, 5-Lipoxygenase (Homo sapiens, UniProt P09917).
T1 sequence (P09917 1-674): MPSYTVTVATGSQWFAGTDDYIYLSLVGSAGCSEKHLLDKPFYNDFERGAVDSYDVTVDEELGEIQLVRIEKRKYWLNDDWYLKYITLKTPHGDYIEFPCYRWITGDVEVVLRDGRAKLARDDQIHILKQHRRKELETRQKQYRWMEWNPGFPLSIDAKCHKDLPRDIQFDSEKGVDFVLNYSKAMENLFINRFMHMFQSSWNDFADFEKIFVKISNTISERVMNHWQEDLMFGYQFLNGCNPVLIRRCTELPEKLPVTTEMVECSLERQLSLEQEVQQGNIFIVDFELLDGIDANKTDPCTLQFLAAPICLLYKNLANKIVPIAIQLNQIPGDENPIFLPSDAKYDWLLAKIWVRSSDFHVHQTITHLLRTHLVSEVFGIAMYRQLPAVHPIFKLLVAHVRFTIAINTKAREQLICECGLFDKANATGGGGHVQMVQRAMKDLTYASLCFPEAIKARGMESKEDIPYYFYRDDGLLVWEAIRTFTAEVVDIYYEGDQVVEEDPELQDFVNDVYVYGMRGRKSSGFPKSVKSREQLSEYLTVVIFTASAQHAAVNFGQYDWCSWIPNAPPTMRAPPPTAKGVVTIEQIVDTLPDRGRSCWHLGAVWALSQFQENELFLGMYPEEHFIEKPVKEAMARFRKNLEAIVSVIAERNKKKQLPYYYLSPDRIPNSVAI
Kind of assay: cell-based.

In assay [1] the test system is durch Arachidonsäure induzierten Thromboembolie. Kind of assay: Protection against arachidonic acid induced thromboembolism. Type of assay: in vivo. The following applies: 100 mg/kg p.o., Kaninchen, 1,5 mg/kg Na-arachidonat. How it is done: In diesem Modell wirken Substanzen, die mit der Prostaglandin- und Thromboxanbiosynthese interferieren. Kaninchen werden 1,5 mg/kg Na-arachidonat in eine marginale Ohrvene injiziert. Die Tiere sterben innerhalb von Minuten, vermutlich aufgrund vasospastischer Cyclooxygenase- und Lipoxygenaseprodukte sowie embolisierender Plättchenthromben. Vorbehandlung mit den erfindungsgemäßen Verbindungen schützt die Tiere, so daß diese überleben. Literatur: Silver, M.J. et al., Science 183, 1085, 1974 Seuter, F., Busse, W.D., Agents and Actions, Suppl. 4, 175, 1979.

The subject of the next assay is Prostacyclin (PGI2). Kind of assay: Prostacyclin stimulation in aortic rings ex vivo. The following applies: 30 mg/kg p.o., Ratten. On the procedure:
Aortenringe von mit Prüfsubstanzen vorbehandelten Ratten werden 10 Minuten bei 37°C in Trispuffer (pH 7,8) inkubiert. Das sich bildende Prostacyclin wird nach Umwandlung zu dem stabilen 6-Keto-PGF radioimmunologisch bestimmt. Literatur: Mc Intyre, D.E., Salzman, E.W., Thrombos. Haemostas. 46, 19, 1981. Seuter, F. et al., 6th International Symposium on Atherosclerosis, Abstr. 270, Berlin 1982.

From the text for 5-Lipoxygenase: Die Hemmung der Freisetzung von 5-HETE und Leukotrien B4 aus den Leukozyten stellt ein Maß für den lipoxygenasehemmenden Effekt der erfindungsgemäßen Verbindungen dar.
Der Test mit den Humanleukozyten wurde nach Borgeat und Samuelsson (J. Biol. Chem. 254, 2643, 1979 und Proc. Natl. Acad. Sci. USA, 76, 2148, 1979) durchgeführt.
Die im vorliegenden Beispiel verwendeten Human PMN-Leukozyten (w95 %) wurden aus heparinisiertem Vollblut durch eine Dextran-Sedimentation und anschließende Dichtegradiententrennung (Ficoll-Paque) gewonnen (vgl. A. Boyum, Scand. J. Immunol., 5, Suppl 5, 9, 1976).
2 x 10^7 Zellen/ml wurden in Ca2+-haltigem Dulbecco-Phosphat-Puffer suspendiert und in Anwesenheit bzw. Abwesenheit von Lipoxygenasehemmer mit dem Calcium-Ionophor A 23187 stimuliert.
Nach 15 Minuten wurden die Lipoxygenaseprodukte aus dem angesäuerten Inkubationsmedium extrahiert und mittels HPLC getrennt. Die Hochdruckflüssigkeitschromatographie wurde auf Lichrosorb RP-18(5 µm)-Säulen durchgeführt. Das Laufmittel war Methanol/Wasser/Eisessig 69/ 31/0.01. Die Flußrate betrug 1 ml/min. Leukotrien B4 wurde bei 280 nm, die HETE-Derivate bei 232 nm mittels der UV-Absorption bestimmt.

For `CC(C(=O)O)c1ccc2oc(-c3ccc(Cl)cc3)nc2c1` (stereo not shown) [Benoxaprofen], the IC50 (usually the midpoint of a concentration-inhibition curve) against 5-Lipoxygenase is 33.1 to 166 µM.

With `O=C1CCCC2=C1Sc1ccccc1N2` [Herstellungs-beispiel 16], the Überlebensrate % in assay [1] was 66,6%.

For `CSCCOC(=O)C1=C(C)Nc2ccccc2S1` [Herstellungsbeispiel 7], the “Fähigkeit von Aortenringen Prostacyclin zu synthetisieren” value in the assay on Prostacyclin (PGI2) is “erhöht”.

As to `CC(Cc1ccc(O)c(O)c1)C(C)Cc1ccc(O)c(O)c1` (stereo not shown) [NDGA, Nordihydroguaretsäure], the inhibition at 0.5 µg/mL at 5-Lipoxygenase (0.25 h, read-out: Hemmung) is around 50%.
